Measurements reported in ChEMBL document CHEMBL1147339, “Combination effects of antifungal nagilactones against Candida albicans and two other fungi with phenylpropanoids” (1993).
Values after ≈ are worked out from the molar mass of the structure shown. Active and inactive are the calls of the source. The rule behind the calls is not given here.

What was measured:
Saccharomyces cerevisiae [1] = assay: Antifungal activity against Saccharomyces cerevisiae ATCC 7754 after 2 days by broth dilution method; assay type: functional; settings: ATCC 7754, 48 h
Candida albicans [2] = assay: Antifungal activity against Candida albicans ATCC 18804 after 2 days by broth dilution method; assay type: functional; settings: ATCC 18804, 48 h
Malassezia furfur [3] = assay: Antifungal activity against Pityrosporum ovale ATCC 14521 after 3 days by broth dilution method; assay type: functional; settings: ATCC 14521, 72 h
Saccharomyces cerevisiae [4] = assay: Antifungal activity against Saccharomyces cerevisiae ATCC 7754 at 800 ug/mL after 2 days by broth dilution method; assay type: functional; settings: ATCC 7754, 48 h
[5] = test system: Corynebacterium ammoniagenes; assay: Antimicrobial activity against Brevibacterium ammoniagenes ATCC 6872 up to 800 ug/mL after 2 days by broth dilution method; assay type: functional, organism-based
Staphylococcus aureus = assay: Antimicrobial activity against Staphylococcus aureus ATCC 12598 up to 800 ug/mL after 2 days by broth dilution method; assay type: functional, organism-based
Streptococcus mutans = assay: Antimicrobial activity against Streptococcus mutans ATCC 25175 up to 800 ug/mL after 2 days by broth dilution method; assay type: functional, organism-based
Cutibacterium acnes = assay: Antimicrobial activity against Propionibacterium acnes ATCC 11827 up to 800 ug/mL after 2 days by broth dilution method; assay type: functional, organism-based
Escherichia coli = assay: Antimicrobial activity against Escherichia coli ATCC 9637 up to 800 ug/mL after 2 days by broth dilution method; assay type: functional, organism-based
Pseudomonas aeruginosa = assay: Antimicrobial activity against Pseudomonas aeruginosa ATCC 10145 up to 800 ug/mL after 2 days by broth dilution method; assay type: functional, organism-based
Klebsiella aerogenes = assay: Antimicrobial activity against Enterobacter aerogenes ATCC 13048 up to 800 ug/mL after 2 days by broth dilution method; assay type: functional, organism-based
Penicillium chrysogenum = assay: Antimicrobial activity against Penicillium chrysogenum ATCC 10106 up to 800 ug/mL after 5 days by broth dilution method; assay type: functional, organism-based
Candida albicans [6] = assay: Antifungal activity against Candida albicans ATCC 18804 at 800 ug/mL after 2 days by broth dilution method; assay type: functional, organism-based
Malassezia furfur [7] = assay: Antifungal activity against Pityrosporum ovale ATCC 14521 at 800 ug/mL after 3 days by broth dilution method; assay type: functional, organism-based
Saccharomyces cerevisiae [8] = assay: Antifungal activity against Saccharomyces cerevisiae ATCC 7754 at 1600 ug/mL after 2 days by broth dilution method; assay type: functional, organism-based
Bacillus subtilis = assay: Antimicrobial activity against Bacillus subtilis ATCC 9372 up to 800 ug/mL after 2 days by broth dilution method; assay type: functional; settings: ATCC 9372, 48 h

Row | Compound | MIC (Saccharomyces cerevisiae [1]) | MIC (Candida albicans [2]) | MIC (Malassezia furfur [3]) | also measured
1 | COc1ccc(/C=C/C(=O)O)cc1 [4-METHOXYCINNAMIC ACID] | 100 µg/mL (≈ 561 µM) | 200 µg/mL (≈ 1120 µM) | > 800 µg/mL | –
2 | C=CCc1ccc(O)c(OC)c1 [EUGENOL] | 800 µg/mL (≈ 4870 µM) | 800 µg/mL (≈ 4870 µM) | 200 µg/mL (≈ 1220 µM) | –
3 | C/C=C\c1ccc(O)c(OC)c1 [ISOEUGENOL] | 400 µg/mL (≈ 2440 µM) | 400 µg/mL (≈ 2440 µM) | 200 µg/mL (≈ 1220 µM) | –
4 | CC(C)[C@H]1OC(=O)C=C2C1=C[C@H]1OC(=O)[C@@]3(C)C[C@H](O)C[C@@]2(C)[C@@H]13 | 800 µg/mL (≈ 2410 µM) | – | – | MIC (Saccharomyces cerevisiae [4]): 800 µg/mL (≈ 2410 µM); Activity [5]: inactive; Activity (Staphylococcus aureus): inactive; Activity (Streptococcus mutans): inactive; Activity (Cutibacterium acnes): inactive; Activity (Escherichia coli): inactive; Activity (Pseudomonas aeruginosa): inactive; Activity (Klebsiella aerogenes): inactive; Activity (Penicillium chrysogenum): inactive
5 | C=CCc1ccccc1 [ALLYLBENZENE] | 400 µg/mL (≈ 3380 µM) | 400 µg/mL (≈ 3380 µM) | > 800 µg/mL | –
6 | CC(C)c1oc(=O)cc2c1[C@@H](O)[C@H]1OC(=O)[C@@]3(C)[C@@H](O)[C@H]4O[C@H]4[C@@]2(C)[C@@H]13 [NAGILACTONE C] | > 1600 µg/mL | – | > 1600 µg/mL | Activity (Candida albicans [6]): inactive; Activity (Malassezia furfur [7]): inactive; Activity [5]: inactive; Activity (Staphylococcus aureus): inactive; Activity (Streptococcus mutans): inactive; Activity (Cutibacterium acnes): inactive; Activity (Escherichia coli): inactive; Activity (Pseudomonas aeruginosa): inactive; Activity (Klebsiella aerogenes): inactive; Activity (Penicillium chrysogenum): inactive; Activity (Saccharomyces cerevisiae [8]): inactive
7 | CC(C)[C@H]1OC(=O)C=C2C13O[C@@H]3[C@H]1OC(=O)[C@@]3(C)[C@@H](O)CC[C@@]2(C)[C@@H]13 (some centres not stated) [NAGILACTONE E] | 100 µg/mL (≈ 287 µM) | 800 µg/mL (≈ 2300 µM) | 50 µg/mL (≈ 144 µM) | MIC (Bacillus subtilis): 50 µg/mL (≈ 144 µM); Activity [5]: inactive; Activity (Staphylococcus aureus): inactive; Activity (Streptococcus mutans): inactive; Activity (Cutibacterium acnes): inactive; Activity (Escherichia coli): inactive; Activity (Pseudomonas aeruginosa): inactive; Activity (Klebsiella aerogenes): inactive; Activity (Penicillium chrysogenum): inactive
8 | C=CCc1ccc2c(c1)OCO2 [SAFROLE] | 200 µg/mL (≈ 1230 µM) | 200 µg/mL (≈ 1230 µM) | 200 µg/mL (≈ 1230 µM) | –
9 | C/C=C/c1ccc(OC)cc1 [ANETHOLE] | 200 µg/mL (≈ 1350 µM) | 200 µg/mL (≈ 1350 µM) | 200 µg/mL (≈ 1350 µM) | –
10 | C/C=C/c1ccccc1 | 400 µg/mL (≈ 3380 µM) | 400 µg/mL (≈ 3380 µM) | > 800 µg/mL | –
11 | C/C=C/c1cc(OC)c(OC)cc1OC [TRANS-ASARONE] | 800 µg/mL (≈ 3840 µM) | 800 µg/mL (≈ 3840 µM) | 200 µg/mL (≈ 960 µM) | –
12 | C=CCc1ccc(OC)c(OC)c1 [METHYLEUGENOL] | 800 µg/mL (≈ 4490 µM) | 800 µg/mL (≈ 4490 µM) | 200 µg/mL (≈ 1120 µM) | –
13 | C/C=C/c1ccc(OC)c(OC)c1 [METHYLISOEUGENOL] | 400 µg/mL (≈ 2240 µM) | 400 µg/mL (≈ 2240 µM) | 200 µg/mL (≈ 1120 µM) | –
14 | C/C=C/c1ccc2c(c1)OCO2 [ISOSAFROLE] | 200 µg/mL (≈ 1230 µM) | 100 µg/mL (≈ 617 µM) | 100 µg/mL (≈ 617 µM) | –
15 | O=C(O)c1ccc(O)cc1 [PARABEN] | 200 µg/mL (≈ 1450 µM) | – | 100 µg/mL (≈ 724 µM) | –
16 | COc1ccc(O)c(C(C)(C)C)c1.COc1ccc(O)cc1C(C)(C)C [BUTYLATED HYDROXYANISOLE] | 200 µg/mL | – | 200 µg/mL | –
